Among the test systems are MDA-MB-231 breast; RPMI-8226 leukemia; NCI/ADR-RES ovarian; HCT-116 colon; UO-31 renal; SK-MEL-5 melanoma; OVCAR-4 ovarian; MDA-MB-435; PC-3 prostate; RXF 393 renal; IGROV1 ovarian; A498 renal; ACHN renal; SF-295 CNS; MDA-N.
What all share (test): NCI-60 cell line screen, 48 h

Each structure is given as a SMILES string.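 Interpolation was linear, between the two tested concentrations surrounding the appropriate level; five concentrations were tested over 48 hours in 96-well plates. The concentration for full growth arrest is given as TGI.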

With `O=C(c1cscc1CCc1ccccc1)c1cscc1CCc1ccccc1`, the TGI with MDA-MB-231 breast, with RPMI-8226 leukemia, in the assay with NCI/ADR-RES ovarian, in the assay with HCT-116 colon, with UO-31 renal and with SK-MEL-5 melanoma was over 100 µM in each case. In addition, the TGI in the assay on OVCAR-4 ovarian, with MDA-MB-435, with PC-3 prostate, with RXF 393 renal, in the assay on IGROV1 ovarian and with A498 renal was over 100 µM throughout. Further, the TGI in the assay on ACHN renal, in the assay with SF-295 CNS and with MDA-N was over 100 µM throughout.
As for `Cc1cc(N2CCOCC2)nc2ccc(Cc3ccc4nc(N5CCOCC5)cc(C)c4c3)cc12`, the TGI in the assay with MDA-MB-231 breast was over 100 µM; in the assay on RPMI-8226 leukemia, over 100 µM; in the assay on NCI/ADR-RES ovarian, over 100 µM; in the assay on HCT-116 colon, 54.7 µM; with UO-31 renal, over 100 µM; in the assay with SK-MEL-5 melanoma, 36.6 µM. Further, the TGI in the assay with OVCAR-4 ovarian, in the assay on MDA-MB-435, with PC-3 prostate, in the assay with RXF 393 renal, with IGROV1 ovarian and with A498 renal was over 100 µM in each case. Besides, the TGI with ACHN renal, in the assay with SF-295 CNS and in the assay on MDA-N was over 100 µM throughout.
Take `O=C1C=C(c2ccccc2)OC1C1Sc2ccccc2NC1=O` (stereo not given): the TGI was over 57.1 µM in the assay on MDA-MB-231 breast; 12.5 µM in the assay on RPMI-8226 leukemia; over 80.9 µM in the assay on NCI/ADR-RES ovarian; 24.6 µM in the assay on HCT-116 colon; 76.1 µM with UO-31 renal; 38.2 µM in the assay with SK-MEL-5 melanoma. Also, the TGI is over 100 µM in the assay on OVCAR-4 ovarian; over 100 µM in the assay with MDA-MB-435; over 54.9 µM with PC-3 prostate; over 94.4 µM with RXF 393 renal; over 100 µM in the assay with IGROV1 ovarian; over 31.5 µM in the assay with A498 renal. Further, the TGI with ACHN renal is over 62.6 µM; in the assay with SF-295 CNS, 27 µM; in the assay on MDA-N, over 100 µM.
On to `COC(=O)[C@@H]1C[C@@H](O)CN1C(=O)c1ccc([N+](=O)[O-])cc1[N+](=O)[O-]`, for which the TGI in the assay on MDA-MB-231 breast, with RPMI-8226 leukemia, with NCI/ADR-RES ovarian, in the assay on HCT-116 colon, in the assay on UO-31 renal and in the assay with SK-MEL-5 melanoma was over 100 µM each time. Besides, the TGI in the assay on OVCAR-4 ovarian, with MDA-MB-435, in the assay on PC-3 prostate, with RXF 393 renal, in the assay on IGROV1 ovarian and with A498 renal was over 100 µM each time. The TGI with ACHN renal, in the assay on SF-295 CNS and in the assay on MDA-N was over 100 µM throughout.
Regarding `CCN(CC)C1Oc2cc3c(cc2C(c2cc(OC)c(O)c(OC)c2)C1C)OCO3` (stereo not given), the TGI was 73.7 µM in the assay on MDA-MB-231 breast; 34.7 µM in the assay with RPMI-8226 leukemia; 37.4 µM in the assay with NCI/ADR-RES ovarian; 18.2 µM in the assay with HCT-116 colon; over 100 µM with UO-31 renal; 30.7 µM in the assay with SK-MEL-5 melanoma. The TGI was over 82.2 µM with OVCAR-4 ovarian; 6.05 µM in the assay with MDA-MB-435; over 75.1 µM with PC-3 prostate; over 31.5 µM with RXF 393 renal; 50 µM with IGROV1 ovarian; 64.8 µM in the assay with A498 renal. Besides, the TGI in the assay with ACHN renal is over 100 µM; in the assay with SF-295 CNS, 24.1 µM; in the assay with MDA-N it was 4.8 µM.
On to `Cn1c(=O)c2ccccc2[n+]2c(-c3cccc([N+](=O)[O-])c3)csc12`, for which the TGI with MDA-MB-231 breast is over 100 µM; with RPMI-8226 leukemia it was over 100 µM; in the assay on NCI/ADR-RES ovarian, 83.5 µM; in the assay on HCT-116 colon, over 100 µM; with UO-31 renal, over 100 µM; in the assay on SK-MEL-5 melanoma, over 100 µM. Besides, the TGI in the assay on OVCAR-4 ovarian, in the assay with MDA-MB-435, in the assay on PC-3 prostate, in the assay on RXF 393 renal, in the assay with IGROV1 ovarian and with A498 renal was over 100 µM throughout. Besides, the TGI in the assay on ACHN renal, in the assay with SF-295 CNS and in the assay with MDA-N was over 100 µM each time.
As for `CC(=O)OCC1(C)C(O)CCC2(C)C1CCC1CC3CC12CCC3(O)CO` (stereo not given), the TGI in the assay with MDA-MB-231 breast, with RPMI-8226 leukemia, with NCI/ADR-RES ovarian, in the assay on HCT-116 colon, in the assay on UO-31 renal and in the assay on SK-MEL-5 melanoma was over 100 µM in each case. Besides, the TGI in the assay with OVCAR-4 ovarian is over 100 µM; with MDA-MB-435, over 100 µM; in the assay with PC-3 prostate it was over 100 µM; in the assay with RXF 393 renal, over 100 µM; with IGROV1 ovarian it was over 100 µM; with A498 renal, 8.59 µM. Moreover, the TGI in the assay with ACHN renal, in the assay on SF-295 CNS and in the assay with MDA-N was over 100 µM in each case.
Turning to `O=C1Nc2ccc(Br)cc2/C1=N/S(=O)(=O)O`, the TGI with MDA-MB-231 breast is 36 µM; in the assay with RPMI-8226 leukemia, 47.6 µM; in the assay with NCI/ADR-RES ovarian it was over 100 µM; in the assay with HCT-116 colon it was over 100 µM; with UO-31 renal it was over 100 µM; in the assay with SK-MEL-5 melanoma, 29.6 µM. Moreover, the TGI with OVCAR-4 ovarian was 44.1 µM; in the assay with MDA-MB-435, 22.7 µM; in the assay with PC-3 prostate it was 83.3 µM; with RXF 393 renal, over 100 µM; in the assay with IGROV1 ovarian, over 100 µM; with A498 renal, over 100 µM. The TGI was over 100 µM with ACHN renal, over 100 µM in the assay on SF-295 CNS and 26.6 µM with MDA-N.
Turning to `Cc1c(C(=O)c2ccccc2)[n+](=O)c2cc(Cl)c(Cl)cc2n1[O-]`, the TGI with MDA-MB-231 breast turned out to be 25.9 µM; with RPMI-8226 leukemia it was 19.8 µM; in the assay on NCI/ADR-RES ovarian, 38 µM; in the assay with HCT-116 colon, 26.3 µM; in the assay on UO-31 renal it was 26.1 µM; in the assay on SK-MEL-5 melanoma, 28.6 µM. Also, the TGI with OVCAR-4 ovarian was determined as 16.5 µM; with MDA-MB-435, 24.5 µM; in the assay on PC-3 prostate, 59.5 µM; in the assay with RXF 393 renal it was 19.2 µM; with IGROV1 ovarian, 5.16 µM; in the assay on A498 renal, 33.8 µM. Further, the figures for the TGI in the assay on ACHN renal, in the assay with SF-295 CNS and with MDA-N were 28.5 µM, 28.7 µM and 25.9 µM, respectively.

The values above are taken from PubChem BioAssay (NCI).
